Results taken from US20250195521A1 (Revolution Medicines, Inc., priority 2020, published 2025).
Read-outs that look alike come from different tables or passages of the source.

Legend:
KRAS G12V = KRAS G12V (Homo sapiens (Human), UniProt P01116+P62937, G12V); experiment: Ras-Raf disruption/FRET/MOA assay, KRAS G12V; assay type: biochemical; settings: read-out: KRAS G12V FRET IC50
Description: Disruption of B-Raf Ras-Binding Domain (BRAF^RBD) Interaction with K-Ras by Compounds of the Invention (Also Called a FRET Assay or an MOA Assay)
Note—The following protocol describes a procedure for monitoring disruption of K-Ras G12C (GMP-PNP) binding to BRAF^RBD by a compound of the invention. This protocol may also be executed substituting other Ras proteins or nucleotides, such as K-Ras G12D and K-Ras G13D.
The purpose of this biochemical assay was to measure the ability of test compounds to facilitate ternary complex formation between a nucleotide-loaded K-Ras isoform and Cyclophilin A; the resulting ternary complex disrupts binding to a BRAF^RBD construct, inhibiting K-Ras signaling through a RAF effector. Data is reported as IC50 values.
In assay buffer containing 25 mM HEPES pH 7.3, 0.002% Tween20, 0.1% BSA, 100 mM NaCl and 5 mM MgCl2, tagless Cyclophilin A, His6-K-Ras-GMPPNP, and GST-BRAF^RBD were combined in a 384-well assay plate at final concentrations of 25 μM, 12.5 nM, and 50 nM, respectively. Compound was present in plate wells as a 10-point 3-fold dilution series starting at a final concentration of 30 μM. After incubation at 25° C. for 3 hours, a mixture of anti-His Eu—W1024 and anti-GST allophycocyanin was then added to assay sample wells at final concentrations of 10 nM and 50 nM, respectively, and the reaction incubated for an additional 1.5 hours. […] Compounds that facilitate disruption of a K-Ras: RAF complex were identified as those eliciting a decrease in the TR-FRET ratio relative to DMSO control wells.

AsPC-1 (K-Ras G12D) [1] = experiment: Potency assay: pERK; assay type: cell-based, human; settings: Homo sapiens
Procedure, shortened: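 pERK decrease measured after 4 h compound treatment at 37 °C (10 three-fold dilutions, duplicate wells), by either fixed-cell In-Cell Western with DRAQ5 counterstain or AlphaLISA on lysates. Signal fitted against log concentration with a four-parameter model to give IC50.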

NCI-H358 (K-Ras G12C) = experiment: CellTiter-Glo cell viability assay, H358; assay type: cell-based, human; settings: Homo sapiens, NCI-H358, 120 h
Procedure: Note—The following protocol describes a procedure for monitoring cell viability of K-Ras mutant cancer cell lines in response to a compound of the invention. Other RAS isoforms may be employed, though the number of cells to be seeded will vary based on cell line used.
Test compounds (132.5 nL) were directly dispensed into the assay plates containing cells. […] On day 5, assay plates and their contents were equilibrated to room temperature for approximately 30 minutes. […] Luminescence was measured using the PerkinElmer Enspire. Data were normalized by the following: (Sample signal/Avg. DMSO)*100. The data were fit using a four-parameter logistic fit.

AsPC-1 (K-Ras G12D) [2] = experiment: CellTiter-Glo cell viability assay, AsPC-1; assay type: cell-based, human; settings: Homo sapiens, ASPC1, 120 h, read-out: AsPC-1 Cell Viability IC50
Procedure, shortened: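 Four-parameter logistic fits were applied to luminescence data normalized against DMSO-treated wells. Readings were taken on day 5 following direct compound addition, after roughly 30 minutes at room temperature.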

[3] = read-out: H358 Cell Viability IC50, K-Ras G12C, 5-day treatment

KRAS G12V, sequence (P01116 other isoform, or with tags, fused parts or gaps G12V): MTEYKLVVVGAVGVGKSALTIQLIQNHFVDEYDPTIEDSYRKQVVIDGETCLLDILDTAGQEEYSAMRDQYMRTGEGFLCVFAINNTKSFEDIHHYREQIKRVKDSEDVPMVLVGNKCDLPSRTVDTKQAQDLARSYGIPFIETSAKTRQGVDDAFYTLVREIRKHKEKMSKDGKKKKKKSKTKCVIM
KRAS G12V, sequence (P62937 whole entry, the tested form may be a part): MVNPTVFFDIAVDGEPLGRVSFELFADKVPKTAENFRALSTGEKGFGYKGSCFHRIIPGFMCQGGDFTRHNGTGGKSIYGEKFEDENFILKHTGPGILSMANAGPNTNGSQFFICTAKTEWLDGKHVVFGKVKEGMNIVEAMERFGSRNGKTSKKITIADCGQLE

Structure (SMILES)	IC50 (KRAS G12V) [nM]	EC50 (AsPC-1 (K-Ras G12D) [1]; ASPC1, AsPC-1 KRAS G12D, read-out: pERK EC50) [nM]	IC50 (NCI-H358 (K-Ras G12C); K-Ras G12C, 5-day treatment, read-out: H358 Cell Viability IC50) [nM]	IC50 (AsPC-1 (K-Ras G12D) [2]; K-Ras G12D, 5-day treatment) [nM]	EC50 (AsPC-1 (K-Ras G12D) [1]; ASPC1, read-out: pERK EC50) [nM]	IC50 (NCI-H358 (K-Ras G12C); [3]) [nM]	IC50 (AsPC-1 (K-Ras G12D) [2]) [nM]
CCn1c(-c2cccnc2[C@H](C)OC)c2c3cc(ccc31)-c1cccc(c1)C[C@H](NC(=O)[C@H](C(C)C)N(C)C(=O)CCN=C=NCc1ccccc1OC)C(=O)N1CCC[C@H](N1)C(=O)OCC(C)(C)C2 [Example 73]	1000 to 10000						
CCn1c(-c2cccnc2[C@H](C)OC)c2c3cc(ccc31)-c1cccc(c1)C[C@H](NC(=O)[C@H](C(C)C)N(C)C(=O)[C@H]1CC[C@H](N=C=NCc3ccccc3OC)C1)C(=O)N1CCC[C@H](N1)C(=O)OCC(C)(C)C2 [Example 76]	1000 to 10000						
CCn1c(-c2cccnc2[C@H](C)OC)c2c3cc(ccc31)-c1cc(O)cc(c1)C[C@H](NC(=O)[C@H](C1CCCC1)N1CC[C@]3(CCN(C(=O)[C@@H]4N[C@@H]4C4CC4)C3)C1=O)C(=O)N1CCC[C@H](N1)C(=O)OCC(C)(C)C2 [Example 214, (2S)-2-cyclopentyl-2-((S)-7-((2R,3R)-3-cyclopropylaziridine-2-carbonyl)-1-oxo-2,7-diazaspiro[4.4]nonan-2-yl)-N-((6^3S,4S)-1^1-ethyl-25-hydroxy-1^2-(2-((S)-1-methoxyethyl)pyridin-3-yl)-10,10-dimethyl-5,7-dioxo-6^1,6^2,6^3,6^4,6^5,6^6-hexahydro-1^1H-8-oxa-1 (5,3)-indola-6 (1,3)-pyridazina-2 (1,3)-benzenacycloundecaphane-4-yl) acetamide]		< 5000	10 to 100	10 to 100			
CCn1c(-c2cccnc2[C@H](C)OC)c2c3cc(ccc31)-c1cc(O)cc(c1)C[C@H](NC(=O)[C@H](C(C)C)N(C)C(=O)CN(C)C(=O)[C@@]1(C)CN1)C(=O)N1CCC[C@H](N1)C(=O)OCC(C)(C)C2 [Example 256]					< 5000	10 to 100	100 to 1000
CCn1c(-c2cccnc2[C@H](C)OC)c2c3cc(ccc31)-c1cc(O)cc(c1)C[C@H](NC(=O)[C@H](C(C)C)N(C)C(=O)CN(C)C(=O)[C@]1(C)CN1)C(=O)N1CCC[C@H](N1)C(=O)OCC(C)(C)C2 [Example 257]					< 5000	10 to 100	100 to 1000
CCn1c(-c2cccnc2[C@H](C)OC)c2c3cc(ccc31)-c1cc(O)cc(c1)C[C@H](NC(=O)[C@H](C(C)C)N(C)C(=O)CN(C)C(=O)[C@@H]1N[C@@H]1C(F)(F)F)C(=O)N1CCC[C@H](N1)C(=O)OCC(C)(C)C2 [Example 258]					< 5000	10 to 100	100 to 1000
CCn1c(-c2cccnc2[C@H](C)OC)c2c3cc(ccc31)-c1cc(O)cc(c1)C[C@H](NC(=O)[C@H](C(C)C)N(C)C(=O)CN(C)C(=O)[C@H]1N[C@H]1C(F)(F)F)C(=O)N1CCC[C@H](N1)C(=O)OCC(C)(C)C2 [Example 259]					< 5000	10 to 100	100 to 1000
CCn1c(-c2cccnc2[C@H](C)OC)c2c3cc(ccc31)-c1cc(O)cc(c1)C[C@H](NC(=O)[C@H](C(C)C)N(C)C(=O)CN(C)C(=O)[C@H]1N[C@@H]1C(F)(F)F)C(=O)N1CCC[C@H](N1)C(=O)OCC(C)(C)C2 [Example 261]					< 5000	< 10	100 to 1000
CC[C@H]1N[C@H]1C(=O)N(C)CC(=O)N(C)[C@H](C(=O)N[C@H]1Cc2cc(O)cc(c2)-c2ccc3c(c2)c(c(-c2cccnc2[C@H](C)OC)n3CC)CC(C)(C)COC(=O)[C@@H]2CCCN(N2)C1=O)C(C)C [Example 262]					< 5000	10 to 100	100 to 1000
CC[C@@H]1N[C@@H]1C(=O)N(C)CC(=O)N(C)[C@H](C(=O)N[C@H]1Cc2cc(O)cc(c2)-c2ccc3c(c2)c(c(-c2cccnc2[C@H](C)OC)n3CC)CC(C)(C)COC(=O)[C@@H]2CCCN(N2)C1=O)C(C)C [Example 263]					< 5000	10 to 100	100 to 1000
CCn1c(-c2cccnc2[C@H](C)OC)c2c3cc(ccc31)-c1cc(O)cc(c1)C[C@H](NC(=O)[C@H](C(C)C)N(C)C(=O)CN(C)C(=O)[C@@H]1N[C@@H]1C(C)C)C(=O)N1CCC[C@H](N1)C(=O)OCC(C)(C)C2 [Example 264]					< 5000	10 to 100	100 to 1000
CCn1c(-c2cccnc2[C@H](C)OC)c2c3cc(ccc31)-c1cc(O)cc(c1)C[C@H](NC(=O)[C@H](C(C)C)N(C)C(=O)CN(C)C(=O)[C@H]1N[C@H]1C(C)C)C(=O)N1CCC[C@H](N1)C(=O)OCC(C)(C)C2 [Example 265]					< 5000	10 to 100	100 to 1000
CCn1c(-c2cccnc2[C@H](C)OC)c2c3cc(ccc31)-c1cc(O)cc(c1)C[C@H](NC(=O)[C@H](C(C)C)N(C)C(=O)CN(C)C(=O)[C@H]1CN1CC(=O)N(C)C)C(=O)N1CCC[C@H](N1)C(=O)OCC(C)(C)C2 (some centres unmarked) [Example 270]					< 5000	10 to 100	100 to 1000
CCn1c(-c2cccnc2[C@H](C)OC)c2c3cc(ccc31)-c1cc(O)cc(c1)C[C@H](NC(=O)[C@H](C(C)C)N(C)C(=O)CN(C)C(=O)[C@H]1CN1CCCC#N)C(=O)N1CCC[C@H](N1)C(=O)OCC(C)(C)C2 (some centres unmarked) [Example 273]					< 5000	< 10	100 to 1000
CCn1c(-c2cccnc2[C@H](C)OC)c2c3cc(ccc31)-c1cc(O)cc(c1)C[C@H](NC(=O)[C@H](C(C)C)N(C)C(=O)CN(C)C(=O)[C@@H]1CN1CCCC#N)C(=O)N1CCC[C@H](N1)C(=O)OCC(C)(C)C2 (some centres unmarked) [Example 274]					< 5000	< 10	100 to 1000
CCn1c(-c2cccnc2[C@H](C)OC)c2c3cc(ccc31)-c1cc(O)cc(c1)C[C@H](NC(=O)[C@H](C(C)C)N(C)C(=O)CN(C)C(=O)[C@@H]1CN1C1COC1)C(=O)N1CCC[C@H](N1)C(=O)OCC(C)(C)C2 (some centres unmarked) [Example 276]					< 5000	10 to 100	1000 to 10000
CCn1c(-c2cccnc2[C@H](C)OC)c2c3cc(ccc31)-c1cc(O)cc(c1)C[C@H](NC(=O)[C@H](C(C)C)N(C)C(=O)CN(C)C(=O)[C@H]1CN1CC1COC1)C(=O)N1CCC[C@H](N1)C(=O)OCC(C)(C)C2 (some centres unmarked) [Example 277]					< 5000	10 to 100	100 to 1000
CCn1c(-c2cccnc2[C@H](C)OC)c2c3cc(ccc31)-c1cc(O)cc(c1)C[C@H](NC(=O)[C@H](C(C)C)N(C)C(=O)CN(C)C(=O)[C@H]1CN1CC1(C)COC1)C(=O)N1CCC[C@H](N1)C(=O)OCC(C)(C)C2 (some centres unmarked) [Example 279]					< 5000	< 10	100 to 1000
CCn1c(-c2cccnc2[C@H](C)OC)c2c3cc(ccc31)-c1cc(O)cc(c1)C[C@H](NC(=O)[C@H](C(C)C)N(C)C(=O)CN(C)C(=O)[C@@H]1CN1CC1(C)COC1)C(=O)N1CCC[C@H](N1)C(=O)OCC(C)(C)C2 (some centres unmarked) [Example 280]					< 5000	< 10	1000 to 10000
CCn1c(-c2cccnc2[C@H](C)OC)c2c3cc(ccc31)-c1cc(O)cc(c1)C[C@H](NC(=O)[C@H](C(C)C)N(C)C(=O)CN(C)C(=O)[C@@H]1N[C@H]1C1COC1)C(=O)N1CCC[C@H](N1)C(=O)OCC(C)(C)C2 [Example 283]					< 5000	10 to 100	100 to 1000
CCn1c(-c2cccnc2[C@H](C)OC)c2c3cc(ccc31)-c1cc(O)cc(c1)C[C@H](NC(=O)[C@H](C(C)C)N(C)C(=O)CN(C)C(=O)[C@@H]1N[C@@H]1C1CCC1)C(=O)N1CCC[C@H](N1)C(=O)OCC(C)(C)C2 [Example 287]					< 5000	10 to 100	100 to 1000
CCn1c(-c2cccnc2[C@H](C)OC)c2c3cc(ccc31)-c1cc(O)cc(c1)C[C@H](NC(=O)[C@H](C(C)C)N(C)C(=O)CN(C)C(=O)[C@H]1N[C@H]1C1CCC1)C(=O)N1CCC[C@H](N1)C(=O)OCC(C)(C)C2 [Example 288]					< 5000	10 to 100	100 to 1000
